The source of these data is article PMC3914206.

For experiment [1], the target named is T1, panel of 442 kinases (Homo sapiens, UniProt P11362).
T1 construct: purchased KINOMEscan
The format is binding. To be noted: Compound Concentration 10 µM. The text has this: (§1) We assessed the selectivity of members of this scaffold using the KINOMEscan methodology across a near comprehensive panel of 442 kinases [[18,27]].

The target of experiment [2] is T2, panel of 442 kinases (Homo sapiens, UniProt Q96PY6).
T2 construct: purchased KINOMEscan
T2 sequence (Q96PY6 1-1258): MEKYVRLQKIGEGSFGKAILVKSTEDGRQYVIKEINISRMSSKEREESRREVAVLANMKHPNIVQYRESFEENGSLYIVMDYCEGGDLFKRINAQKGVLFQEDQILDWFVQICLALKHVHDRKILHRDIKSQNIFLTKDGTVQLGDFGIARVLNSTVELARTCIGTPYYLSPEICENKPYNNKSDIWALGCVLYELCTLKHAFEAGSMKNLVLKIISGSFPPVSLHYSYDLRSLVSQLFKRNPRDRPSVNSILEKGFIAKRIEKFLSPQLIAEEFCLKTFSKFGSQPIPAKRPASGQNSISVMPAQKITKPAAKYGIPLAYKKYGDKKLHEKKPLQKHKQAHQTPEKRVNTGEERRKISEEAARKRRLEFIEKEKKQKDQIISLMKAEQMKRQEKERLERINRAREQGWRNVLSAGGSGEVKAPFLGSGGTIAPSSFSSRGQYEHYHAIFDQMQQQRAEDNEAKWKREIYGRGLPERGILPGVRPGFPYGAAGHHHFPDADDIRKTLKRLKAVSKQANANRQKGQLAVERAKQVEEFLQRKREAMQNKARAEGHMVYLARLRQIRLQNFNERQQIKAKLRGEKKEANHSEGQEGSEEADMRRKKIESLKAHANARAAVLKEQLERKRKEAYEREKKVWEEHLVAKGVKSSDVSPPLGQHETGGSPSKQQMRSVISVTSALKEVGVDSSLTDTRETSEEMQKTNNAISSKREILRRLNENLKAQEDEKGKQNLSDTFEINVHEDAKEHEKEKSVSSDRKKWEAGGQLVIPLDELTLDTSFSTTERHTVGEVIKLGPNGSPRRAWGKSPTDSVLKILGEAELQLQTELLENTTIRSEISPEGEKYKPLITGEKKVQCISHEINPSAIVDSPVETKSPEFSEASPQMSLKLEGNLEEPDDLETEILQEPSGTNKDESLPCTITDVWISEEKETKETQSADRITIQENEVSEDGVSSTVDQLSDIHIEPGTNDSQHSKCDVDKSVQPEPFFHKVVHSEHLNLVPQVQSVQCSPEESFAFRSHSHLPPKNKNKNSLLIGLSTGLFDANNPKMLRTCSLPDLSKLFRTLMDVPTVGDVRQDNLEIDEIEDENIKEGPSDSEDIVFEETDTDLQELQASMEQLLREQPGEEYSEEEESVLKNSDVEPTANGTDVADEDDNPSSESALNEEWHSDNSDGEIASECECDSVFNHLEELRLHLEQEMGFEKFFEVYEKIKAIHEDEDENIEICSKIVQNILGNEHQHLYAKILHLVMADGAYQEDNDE
The format is binding. Particulars: Compound Concentration 10 µM.
Source text: as §1

T1 sequence (P11362 22-822): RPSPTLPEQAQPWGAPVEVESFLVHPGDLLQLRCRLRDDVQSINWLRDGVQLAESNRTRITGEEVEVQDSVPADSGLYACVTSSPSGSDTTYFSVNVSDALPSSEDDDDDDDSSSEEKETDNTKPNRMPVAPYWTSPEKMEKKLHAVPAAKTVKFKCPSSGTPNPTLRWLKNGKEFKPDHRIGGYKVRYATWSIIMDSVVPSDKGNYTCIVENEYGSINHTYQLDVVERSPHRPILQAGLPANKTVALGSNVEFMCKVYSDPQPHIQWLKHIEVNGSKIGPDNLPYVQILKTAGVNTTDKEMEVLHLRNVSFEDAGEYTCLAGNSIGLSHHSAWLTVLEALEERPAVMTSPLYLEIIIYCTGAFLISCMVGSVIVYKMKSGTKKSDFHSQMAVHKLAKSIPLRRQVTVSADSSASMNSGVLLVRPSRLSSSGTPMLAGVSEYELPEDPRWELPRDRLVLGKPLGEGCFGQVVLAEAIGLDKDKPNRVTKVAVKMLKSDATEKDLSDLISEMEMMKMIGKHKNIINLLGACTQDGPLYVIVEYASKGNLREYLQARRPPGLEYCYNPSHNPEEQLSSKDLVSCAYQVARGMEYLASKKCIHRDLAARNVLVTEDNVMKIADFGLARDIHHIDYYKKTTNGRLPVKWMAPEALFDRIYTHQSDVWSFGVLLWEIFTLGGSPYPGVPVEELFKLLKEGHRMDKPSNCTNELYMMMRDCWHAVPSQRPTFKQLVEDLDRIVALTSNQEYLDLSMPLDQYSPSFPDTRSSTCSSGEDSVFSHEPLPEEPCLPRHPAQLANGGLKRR

In the case of `COc1cc(C(=O)N2CCC(N3CCN(C)CC3)CC2)ccc1Nc1ncc2c(n1)N(C1CCCC1)c1ccccc1C(=O)N2C` [Compound 25, 11-cyclopentyl-2-((2-methoxy-4-(4-(4-methylpiperazin-1-yl)piperidine-1-carbonyl)phenyl)amino)-5-methyl-5H-benzo[e]pyrimido[5,4-b][1,4]diazepin-6(11H)-one], the “KINOMEscan: FGFR1” value on panel of 442 kinases [1] amounted to 100. In addition, on panel of 442 kinases [2], the “KINOMEscan: NEK1” value came to 72.

Consider `COc1cc(C(=O)N2CCC(N3CCN(C)CC3)CC2)ccc1Nc1ncc2c(n1)N1CCc3cccc(c31)C(=O)N2C` [Compound 24], for which, at panel of 442 kinases [1], the “KINOMEscan: FGFR1” value is listed as 83. The “KINOMEscan: NEK1” value on panel of 442 kinases [2] is recorded as 63.

Turning to `COc1cc(C(=O)N2CCC(N3CCN(C)CC3)CC2)ccc1Nc1ncc2c(n1)N(C)c1ccccc1C(=O)N2C` [15 (LRRK2-IN-1)], the “KINOMEscan: FGFR1” value at panel of 442 kinases [1] is on record as 86. For the same molecule, the “KINOMEscan: NEK1” value on panel of 442 kinases [2] was 83.

In the case of `CCOc1cc(C(=O)N2CCC(N3CCN(C)CC3)CC2)ccc1Nc1ncc2c(n1)N(C1CCCC1)c1ccccc1C(=O)N2C` [Compound 26], the “KINOMEscan: FGFR1” value on panel of 442 kinases [1] turned out to be 100. Moreover, the “KINOMEscan: NEK1” value on panel of 442 kinases [2] amounted to 84.
